Measurements as given in patent publication US12016334B2, “Composition comprising sulphated galactose, and implementations thereof” (priority 2018, dated 2024).

System: Alternaria solani
Assay: Detached tomato leaf antifungal assay
Assay type: in vivo
Conditions: for size of the fungus induced damage compared to untreated control: 80 mg/L spray

Structure (SMILES) | fungal lesion size compared to untreated control (8 mg/L spray) | size of the fungus induced damage compared to untreated control
O=C[C@H](O)[C@@H](O)[C@@H](OS(=O)(=O)O)[C@H](O)CO [Gal-S, D-galactose-4-O-sulphate] | does not show significant reduction in the fungal lesion size | significant reduction in the size of the fungus induced damage
O=Cc1ccc(CO)o1 [HMF, Hydroxymethylfurfural] | – | significant reduction in the size of the fungus induced damage
